Tests used:
[1] = test system: RS1-10 minigene (Firefly Luciferase), HEK-293T cells; experiment: Luciferase induction assay, RS1-10 with splice modulator compounds in HEK-293T cells; format: cell-based; settings: Homo sapiens, 18 hours, n of 3, read-out: Mean fold-induction of luciferase (relative to vehicle control)
Description: (§1) HEK-293T cells were cultured in DMEM+10% FBS, collected after trypsinization, and then dispensed into 96-well plates (cell culture-treated). Each well of the plate was seeded with 1.0×10^5 cells in 100 μL culture medium. After a 1-hour incubation in a tissue culture incubator (5% CO2, 37 degrees C.), plasmid DNA was complexed with a transfection reagent, such as Lipofectamine 3000, and added to respective wells on the plate. Each well received an equivalent of 100 ng of plasmid DNA complexed with 0.15 μL Lipofectamine. Triplicate wells were used for each condition tested in the experiment. The plasmid utilized in the experiment encoded a CMV promoter upstream of the RS I-10 variant that controlled the expression of a Firefly Luciferase gene followed by a SV40 polyadenylation signal. After a 10-minute incubation at room temperature, either DMSO vehicle or specified compound at specified dose was added to the wells of the plate. Plates were then incubated for 18 hours in a tissue culture incubator. Endpoint analysis was performed by adding 100 uL Steady-Luc Firefly Luciferase substrate to each well of the assay plate. After mixing, the liquid contents of each was transferred to a 96-well plate, mixed again for 2 min on an orbital shaker, and incubated at room temperature for 5 min. Finally, the luminescent signal from each well was measured with a with PerkinElmer Envision plate reader. The results of this assay show RS1-10 responded to the majority of the splice modulator compounds used in a dose responsive manner (FIG. 9C). Bars represent mean+/−standard deviation of 3 wells normalized to vehicle controls.

[2] = test system: RS2-3 minigene (Firefly Luciferase), HEK-293T cells; experiment: Luciferase induction assay, RS2-3 with splice modulator compounds in HEK-293T cells; format: cell-based; settings: Homo sapiens, 18 hours, n of 3, read-out: Mean fold-induction of luciferase (relative to vehicle control)
Description: as §1, with “RS2-3” for “RS I-10”, “RS2-3” for “RS1-10”, “used” for “used in a dose responsive manner”, “13C)” for “9C).”

[3] = test system: RS3-13 minigene (Firefly Luciferase), HEK-293T cells; experiment: Luciferase induction assay, RS3-13 with splice modulator compounds in HEK-293T cells; format: cell-based; settings: Homo sapiens, 18 hours, n of 3, read-out: Mean fold-induction of luciferase (relative to vehicle control)
Description: as §1, with “RS3-13” for “the RS I-10 variant”, “RS3-13” for “RS1-10”, “used” for “used in a dose responsive manner”, “14D)” for “9C).”

RS2-1 and variants = experiment: Luciferase induction assay, RS2-1 and variants in HEK-293T cells; format: cell-based, human; settings: 300 nM (FIG. 13A), 18 hours, FIGS. 13A, 13B
Description: HEK-293T cells were cultured in DMEM+10% FBS, collected after trypsinization, and dispensed into 96-well plates (cell culture-treated). Each well of the plate was seeded with 1.0×10^5 cells in 100 μL culture medium. After a 1-hour incubation in the tissue culture incubator (5% CO2, 37° C.), plasmid DNA was complexed with a transfection reagent, such as Lipofectamine 3000, and added to respective wells on the plate. Each well received 100 ng of plasmid DNA complexed with 0.15 μL Lipofectamine 3000. The plasmids utilized in the experiment encoded a CMV promoter upstream of the RS2-1 construct and variants that controlled the expression of a Firefly Luciferase gene followed by a SV40 polyadenylation signal. After a 10-minute incubation at room temperature, either DMSO vehicle or 100B at specified doses was added to the wells of the plate. Plates were then incubated for 18 hours in a tissue culture incubator. Endpoint analysis was performed by adding 100 μL of a Luciferase substrate, such as Steady-Luc Firefly Luciferase substrate, to each well of the assay plate. The liquid contents of each was transferred to a 96-well plate, mixed again for 2 min on an orbital shaker, and incubated at room temperature for 5 min. Finally, the luminescent signal from each well was measured with a plate reader. […]

Q: For Cc1cn2cc(-c3nc(=O)n4cc(N5CCNCC5)ccc4n3)cc(F)c2n1.Cl [Compound 100B, 2-(8-fluoro-2-methylimidazo[1,2-a]pyridin-6-yl)-7-(piperazin-1-yl)-4H-pyrido[1,2-a][1,3,5]triazin-4-one hydrochloride], which fold induction at 0.1 µM ([1]; RS1-10, 100 nM) is on record?
A: Its fold induction at 0.1 µM is 11.9.

Q: And the fold induction at 1 µM ([1]; RS1-10, 1,000 nM)?
A: The fold induction at 1 µM was 57.1.

Q: What about the fold induction at 0.1 µM ([2]; RS2-3, 100 nM) of the same compound?
A: The fold induction at 0.1 µM was 9.79.

Q: And the fold induction at 1 µM ([2]; RS2-3, 1,000 nM)?
A: Its fold induction at 1 µM is 26.4.

Q: And the fold induction at 0.1 µM ([3]; RS3-13, 100 nM)?
A: The fold induction at 0.1 µM was 10.

Q: And the fold induction at 1 µM ([3]; RS3-13, 1,000 nM)?
A: Its fold induction at 1 µM is 42.4.

Q: What about the “fold induction of luciferase compared to vehicle, constructs vs RS2-1” value (RS2-1 and variants) of the same compound?
A: Its value is “The majority of the constructs show higher fold induction of luciferase”.

— patent US20260327655A1, “SMALL-MOLECULE REGULATED ALTERNATIVE SPLICING” (priority 2023, published 2026)
